Data reported in US20220389061A1, “IMMUNOMODULATORS” (priority 2019, published 2022).
Starred links: 1 amine or outer side, 2 acyl side, 3 side chain; linkers in the order of their positions; H or OH if unused. Positions of bridges follow the written chain, without caps; N, C: chain ends. Non-standard residues stand in square brackets, D forms with d. Residues, ends and D or L forms follow the SMILES beside them. Groups on a side chain read outwards from the residue. *: point of attachment. Trp(1-CH2CO2Me) = COC(=O)Cn1cc(C[C@H](N)C(=O)O)c2ccccc21; Trp(1-CH2COOH) = N[C@@H](Cc1cn(CC(=O)O)c2ccccc12)C(=O)O; X24 = COc1cc(NC(=S)*)ccc1-n1cnc(C)n1; X38 = N#Cc1c[nH]c2c(NC(=S)*)cccc12; X68 = CC1(C)CCC(C)(C)c2cc(N*)ccc21; 2Naphthoyl = O=C(c1ccc2ccccc2c1)*; Hyp = O=C(O)[C@@H]1C[C@@H](O)CN1; X56 = COc1cc([N+](=O)[O-])ccc1N*; X10 = S=C(Nc1ccc(N2CCOCC2)cc1)*; X53 = Cc1nc(-c2cccnc2)sc1C(=O)*; X84 = COc1cc(NC(=S)*)cc(OC)c1OC; X42 = S=C(Nc1ccc2nccnc2c1Br)*; X60 = Cc1cc2cc(NC(=S)*)ccc2o1; NMeNle = CCCC[C@H](NC)C(=O)O; X4 = S=C(Nc1ccc2c(c1)OCCO2)*; X59 = S=C(Nc1ccc2nsnc2c1)*; NMeA = CN[C@@H](C)C(=O)O; Dab = NCC[C@H](N)C(=O)O; Dap = NC[C@H](N)C(=O)O; CO = O=C([*:1])[*:2]

Target: T1, PD-1/PD-L1 (Homo sapiens, UniProt Q9NZQ7)
T1 construct: TVMV protease site linker (C); made in house; host or cells: HEK293T cells
Assay: PD-1/PD-L1 Homogenous Time-Resolved Fluorescence (HTRF) binding assay
Conditions: not given
Source text: The ability of the compounds of formula (I) to bind to PD-L1 was investigated using a PD-1/PD-L1 Homogenous Time-Resolved Fluorescence (HTRF) binding assay.
The interaction of PD-1 and PD-L1 can be assessed using soluble, purified preparations of the extracellular domains of the two proteins. The PD-1 and PD-L1 protein extracellular domains were expressed as fusion proteins with detection tags, for PD-1, the tag was the Fc portion of Immunoglobulin (PD-1-Ig) and for PD-L1 it was the 6 histidine motif (PD-L1-His). All binding studies were performed in an HTRF assay buffer consisting of dPBS supplemented with 0.1% […] bovine serum albumin and 0.05% (v/v) Tween-20. For the h/PD-L1-His binding assay, inhibitors were pre-incubated with PD-L1-His (10 nM final) for 15 m in 4 μl of assay buffer, followed by addition of PD-1-Ig (20 nM final) in 1 μl of assay buffer and further incubation for 15 m. HTRF detection was achieved using europium crypate-labeled anti-Ig (1 nM final) and allophycocyanin (APC) labeled anti-His (20 nM final). Antibodies were diluted in HTRF detection buffer and 5 μl was dispensed on top of the binding reaction. […] Additional binding assays were established between the human proteins PD-1-Ig/PD-L2-His (20 & 5 nM, respectively) and CD80-His/PD-L1-Ig (100 & 10 nM, respectively). […]

T1 sequence (Q9NZQ7 18-239): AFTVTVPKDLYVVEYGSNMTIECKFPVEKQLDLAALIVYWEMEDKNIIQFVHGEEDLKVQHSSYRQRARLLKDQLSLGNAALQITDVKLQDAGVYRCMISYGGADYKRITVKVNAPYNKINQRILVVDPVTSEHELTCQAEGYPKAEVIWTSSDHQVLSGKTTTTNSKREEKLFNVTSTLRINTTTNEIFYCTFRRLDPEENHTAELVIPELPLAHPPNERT

Row | SMILES | IC50 [nM]
1 | CCCC[C@H]1C(=O)N(C)[C@@H](CCCC)C(=O)N[C@@H](CC(C)C)C(=O)N[C@H](C(=O)NCC(N)=O)CSCC(=O)N[C@@H](Cc2ccc(O)cc2)C(=O)N(C)[C@@H](C)C(=O)N[C@@H](CC(N)=O)C(=O)N2CCC[C@H]2C(=O)N[C@@H](CNC(=O)Nc2ccc([N+](=O)[O-])cc2OC)C(=O)N[C@@H](CC(C)C)C(=O)N2C[C@H](O)C[C@H]2C(=O)N[C@@H](Cc2c[nH]c3ccccc23)C(=O)N[C@@H](CCNC(=O)Nc2ccc([N+](=O)[O-])cc2OC)C(=O)N[C@@H](Cc2cn(CC(=O)O)c3ccccc23)C(=O)N1C [Example 1076] ({CH2CO}-Y[NMeA]NP[Dap]([CO-X56])L[Hyp]W[Dab]([CO-X56])[Trp(1-CH2COOH)][NMeNle][NMeNle]LCG-NH2; thioether N-14) | 8.1

Same assay, conditions: PD-L1-His 10 nM pre-incubated with inhibitor, PD-1-Ig 20 nM; read-out: HTRF IC50

Row | SMILES | IC50 [nM]
2 | CCCC[C@H]1C(=O)N(C)[C@@H](CCCC)C(=O)N[C@@H](CC(C)C)C(=O)N[C@H](C(=O)NCC(N)=O)CSCC(=O)N[C@@H](Cc2ccc(O)cc2)C(=O)N(C)[C@@H](C)C(=O)N[C@@H](CC(N)=O)C(=O)N2CCC[C@H]2C(=O)N[C@@H](CNC(=S)Nc2cccc3c(C#N)c[nH]c23)C(=O)N[C@@H](CC(C)C)C(=O)N2C[C@H](O)C[C@H]2C(=O)N[C@@H](Cc2c[nH]c3ccccc23)C(=O)N[C@@H](CCNC(=S)Nc2cccc3c(C#N)c[nH]c23)C(=O)N[C@@H](Cc2cn(CC(=O)O)c3ccccc23)C(=O)N1C [Example 3051] ({CH2CO}-Y[NMeA]NP[Dap](X38)L[Hyp]W[Dab](X38)[Trp(1-CH2COOH)][NMeNle][NMeNle]LCG-NH2; thioether N-14) | 4.5
3 | CCCC[C@H]1C(=O)N(C)[C@@H](CCCC)C(=O)N[C@@H](CC(C)C)C(=O)N[C@H](C(=O)NCC(N)=O)CSCC(=O)N[C@@H](Cc2ccc(O)cc2)C(=O)N(C)[C@@H](C)C(=O)N[C@@H](CC(N)=O)C(=O)N2CCC[C@H]2C(=O)N[C@@H](CNC(=S)Nc2ccc(N3CCOCC3)cc2)C(=O)N[C@@H](CC(C)C)C(=O)N2C[C@H](O)C[C@H]2C(=O)N[C@@H](Cc2c[nH]c3ccccc23)C(=O)N[C@@H](CCN)C(=O)N[C@@H](Cc2cn(CC(=O)O)c3ccccc23)C(=O)N1C [Example 1055] ({CH2CO}-Y[NMeA]NP[Dap](X10)L[Hyp]W[Dab][Trp(1-CH2COOH)][NMeNle][NMeNle]LCG-NH2; thioether N-14) | 0.9
4 | CCCC[C@H]1C(=O)N(C)[C@@H](CCCC)C(=O)N[C@@H](CC(C)C)C(=O)N[C@H](C(=O)NCC(N)=O)CSCC(=O)N[C@@H](Cc2ccc(O)cc2)C(=O)N(C)[C@@H](C)C(=O)N[C@@H](CC(N)=O)C(=O)N2CCC[C@H]2C(=O)N[C@@H](CNC(=O)c2sc(-c3cccnc3)nc2C)C(=O)N[C@@H](CC(C)C)C(=O)N2C[C@H](O)C[C@H]2C(=O)N[C@@H](Cc2c[nH]c3ccccc23)C(=O)N[C@@H](CCNC(=O)c2sc(-c3cccnc3)nc2C)C(=O)N[C@@H](Cc2cn(CC(=O)OC)c3ccccc23)C(=O)N1C [Example 1008] ({CH2CO}-Y[NMeA]NP[Dap](X53)L[Hyp]W[Dab](X53)[Trp(1-CH2CO2Me)][NMeNle][NMeNle]LCG-NH2; thioether N-14) | 7.6
5 | CCCC[C@H]1C(=O)N(C)[C@@H](CCCC)C(=O)N[C@@H](CC(C)C)C(=O)N[C@H](C(=O)NCC(N)=O)CSCC(=O)N[C@@H](Cc2ccc(O)cc2)C(=O)N(C)[C@@H](C)C(=O)N[C@@H](CC(N)=O)C(=O)N2CCC[C@H]2C(=O)N[C@@H](CNC(=S)Nc2ccc3nccnc3c2Br)C(=O)N[C@@H](CC(C)C)C(=O)N2C[C@H](O)C[C@H]2C(=O)N[C@@H](Cc2c[nH]c3ccccc23)C(=O)N[C@@H](CCN)C(=O)N[C@@H](Cc2cn(CC(=O)O)c3ccccc23)C(=O)N1C [Example 3047] ({CH2CO}-Y[NMeA]NP[Dap](X42)L[Hyp]W[Dab][Trp(1-CH2COOH)][NMeNle][NMeNle]LCG-NH2; thioether N-14) | 5.8
6 | CCCC[C@H]1C(=O)N(C)[C@@H](CCCC)C(=O)N[C@@H](CC(C)C)C(=O)N[C@H](C(=O)NCC(N)=O)CSCC(=O)N[C@@H](Cc2ccc(O)cc2)C(=O)N(C)[C@@H](C)C(=O)N[C@@H](CC(N)=O)C(=O)N2CCC[C@H]2C(=O)N[C@@H](CNC(=S)Nc2ccc3c(c2)OCCO3)C(=O)N[C@@H](CC(C)C)C(=O)N2C[C@H](O)C[C@H]2C(=O)N[C@@H](Cc2c[nH]c3ccccc23)C(=O)N[C@@H](CCN)C(=O)N[C@@H](Cc2cn(CC(=O)O)c3ccccc23)C(=O)N1C [Example 3073] ({CH2CO}-Y[NMeA]NP[Dap](X4)L[Hyp]W[Dab][Trp(1-CH2COOH)][NMeNle][NMeNle]LCG-NH2; thioether N-14) | 5
7 | CCCC[C@H]1C(=O)N(C)[C@@H](CCCC)C(=O)N[C@@H](CC(C)C)C(=O)N[C@H](C(=O)NCC(N)=O)CSCC(=O)N[C@@H](Cc2ccc(O)cc2)C(=O)N(C)[C@@H](C)C(=O)N[C@@H](CC(N)=O)C(=O)N2CCC[C@H]2C(=O)N[C@@H](CNC(=O)Nc2ccc3c(c2)C(C)(C)CCC3(C)C)C(=O)N[C@@H](CC(C)C)C(=O)N2C[C@H](O)C[C@H]2C(=O)N[C@@H](Cc2c[nH]c3ccccc23)C(=O)N[C@@H](CCN)C(=O)N[C@@H](Cc2cn(CC(=O)O)c3ccccc23)C(=O)N1C [Example 3046] ({CH2CO}-Y[NMeA]NP[Dap]([CO-X68])L[Hyp]W[Dab][Trp(1-CH2COOH)][NMeNle][NMeNle]LCG-NH2; thioether N-14) | 3.3
8 | CCCC[C@H]1C(=O)N(C)[C@@H](CCCC)C(=O)N[C@@H](CC(C)C)C(=O)N[C@H](C(=O)NCC(N)=O)CSCC(=O)N[C@@H](Cc2ccc(O)cc2)C(=O)N(C)[C@@H](C)C(=O)N[C@@H](CC(N)=O)C(=O)N2CCC[C@H]2C(=O)N[C@@H](CNC(=S)Nc2ccc3oc(C)cc3c2)C(=O)N[C@@H](CC(C)C)C(=O)N2C[C@H](O)C[C@H]2C(=O)N[C@@H](Cc2c[nH]c3ccccc23)C(=O)N[C@@H](CCNC(=S)Nc2ccc3oc(C)cc3c2)C(=O)N[C@@H](Cc2cn(CC(=O)O)c3ccccc23)C(=O)N1C [Example 3072] ({CH2CO}-Y[NMeA]NP[Dap](X60)L[Hyp]W[Dab](X60)[Trp(1-CH2COOH)][NMeNle][NMeNle]LCG-NH2; thioether N-14) | 1.5
9 | CCCC[C@H]1C(=O)N(C)[C@@H](CCCC)C(=O)N[C@@H](CC(C)C)C(=O)N[C@H](C(=O)NCC(N)=O)CSCC(=O)N[C@@H](Cc2ccc(O)cc2)C(=O)N(C)[C@@H](C)C(=O)N[C@@H](CC(N)=O)C(=O)N2CCC[C@H]2C(=O)N[C@@H](CNC(=S)Nc2ccc3nsnc3c2)C(=O)N[C@@H](CC(C)C)C(=O)N2C[C@H](O)C[C@H]2C(=O)N[C@@H](Cc2c[nH]c3ccccc23)C(=O)N[C@@H](CCNC(=S)Nc2ccc3nsnc3c2)C(=O)N[C@@H](Cc2cn(CC(=O)OC)c3ccccc23)C(=O)N1C [Example 3056] ({CH2CO}-Y[NMeA]NP[Dap](X59)L[Hyp]W[Dab](X59)[Trp(1-CH2CO2Me)][NMeNle][NMeNle]LCG-NH2; thioether N-14) | 5.6
10 | CCCC[C@H]1C(=O)N(C)[C@@H](CCCC)C(=O)N[C@@H](CC(C)C)C(=O)N[C@H](C(=O)NCC(N)=O)CSCC(=O)N[C@@H](Cc2ccc(O)cc2)C(=O)N(C)[C@@H](C)C(=O)N[C@@H](CC(N)=O)C(=O)N2CCC[C@H]2C(=O)N[C@@H](CNC(=S)Nc2cc(OC)c(OC)c(OC)c2)C(=O)N[C@@H](CC(C)C)C(=O)N2C[C@H](O)C[C@H]2C(=O)N[C@@H](Cc2c[nH]c3ccccc23)C(=O)N[C@@H](CCN)C(=O)N[C@@H](Cc2cn(CC(=O)O)c3ccccc23)C(=O)N1C [Example 1065] ({CH2CO}-Y[NMeA]NP[Dap](X84)L[Hyp]W[Dab][Trp(1-CH2COOH)][NMeNle][NMeNle]LCG-NH2; thioether N-14) | 2.8
11 | CCCC[C@H]1C(=O)N(C)[C@@H](CCCC)C(=O)N[C@@H](CC(C)C)C(=O)N[C@H](C(=O)NCC(N)=O)CSCC(=O)N[C@@H](Cc2ccc(O)cc2)C(=O)N(C)[C@@H](C)C(=O)N[C@@H](CC(N)=O)C(=O)N2CCC[C@H]2C(=O)N[C@@H](CNC(=O)c2ccc3ccccc3c2)C(=O)N[C@@H](CC(C)C)C(=O)N2C[C@H](O)C[C@H]2C(=O)N[C@@H](Cc2c[nH]c3ccccc23)C(=O)N[C@@H](CCNC(=O)c2ccc3ccccc3c2)C(=O)N[C@@H](Cc2cn(CC(=O)OC)c3ccccc23)C(=O)N1C [Example 3009] ({CH2CO}-Y[NMeA]NP[Dap](2Naphthoyl)L[Hyp]W[Dab](2Naphthoyl)[Trp(1-CH2CO2Me)][NMeNle][NMeNle]LCG-NH2; thioether N-14) | 9
12 | CCCC[C@H]1C(=O)N(C)[C@@H](CCCC)C(=O)N[C@@H](CC(C)C)C(=O)N[C@H](C(=O)NCC(N)=O)CSCC(=O)N[C@@H](Cc2ccc(O)cc2)C(=O)N(C)[C@@H](C)C(=O)N[C@@H](CC(N)=O)C(=O)N2CCC[C@H]2C(=O)N[C@@H](CNC(=S)Nc2ccc(-n3cnc(C)n3)c(OC)c2)C(=O)N[C@@H](CC(C)C)C(=O)N2C[C@H](O)C[C@H]2C(=O)N[C@@H](Cc2c[nH]c3ccccc23)C(=O)N[C@@H](CCN)C(=O)N[C@@H](Cc2cn(CC(=O)O)c3ccccc23)C(=O)N1C [Example 1054] ({CH2CO}-Y[NMeA]NP[Dap](X24)L[Hyp]W[Dab][Trp(1-CH2COOH)][NMeNle][NMeNle]LCG-NH2; thioether N-14) | 3.5
